Laboratory results reported in patent publication US12583861B2, “Derivatives of imidazo[4,5-d]pyridazine, their preparation and their therapeutic application” (SANOFI, priority 2021, dated 2026).
Counter-ions that a name gives are not always drawn.

Experiments:
human TLR8 = molecular target: T1, human TLR8 (Homo sapiens, UniProt Q9NR97); test: HEK-Blue hTLR8 reporter cell assay (SEAP, NF-kB/AP-1) for stimulation of human TLR8; type: cell-based; conditions: HEK-Blue hTLR8 cells, 24 h incubation, SEAP readout; read-out: TLR8_EC50
T1 construct: host or cells: HEK293 (HEK-Blue hTLR8)
T1 sequence (Q9NR97 27-1041): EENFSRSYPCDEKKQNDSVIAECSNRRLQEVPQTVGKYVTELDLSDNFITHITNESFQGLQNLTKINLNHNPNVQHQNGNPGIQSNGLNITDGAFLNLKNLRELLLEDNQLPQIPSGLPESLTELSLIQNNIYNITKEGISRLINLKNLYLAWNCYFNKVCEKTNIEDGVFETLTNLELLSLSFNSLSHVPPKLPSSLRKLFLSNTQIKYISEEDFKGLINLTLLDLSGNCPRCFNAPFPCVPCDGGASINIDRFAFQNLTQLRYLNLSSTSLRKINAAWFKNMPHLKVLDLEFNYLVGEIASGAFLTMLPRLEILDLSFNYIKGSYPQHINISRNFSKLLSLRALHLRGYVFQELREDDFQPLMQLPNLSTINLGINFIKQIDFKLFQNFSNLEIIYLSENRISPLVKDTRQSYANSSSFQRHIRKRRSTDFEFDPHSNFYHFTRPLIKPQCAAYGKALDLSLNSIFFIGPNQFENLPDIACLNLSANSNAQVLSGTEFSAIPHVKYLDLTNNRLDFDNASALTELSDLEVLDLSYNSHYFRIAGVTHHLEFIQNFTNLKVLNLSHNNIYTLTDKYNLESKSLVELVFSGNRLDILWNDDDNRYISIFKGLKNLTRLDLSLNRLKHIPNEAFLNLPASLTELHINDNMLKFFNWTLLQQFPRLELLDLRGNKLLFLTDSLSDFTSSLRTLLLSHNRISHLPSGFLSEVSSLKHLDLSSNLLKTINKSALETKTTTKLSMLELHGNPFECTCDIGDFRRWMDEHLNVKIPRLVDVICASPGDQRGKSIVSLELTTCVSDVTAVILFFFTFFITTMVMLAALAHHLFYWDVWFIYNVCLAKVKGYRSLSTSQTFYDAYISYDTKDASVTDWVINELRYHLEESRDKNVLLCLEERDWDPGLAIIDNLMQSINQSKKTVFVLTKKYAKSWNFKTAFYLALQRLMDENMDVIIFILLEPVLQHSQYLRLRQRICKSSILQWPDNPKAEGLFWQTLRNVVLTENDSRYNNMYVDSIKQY
Method: (§1) The below tests, involving measuring the in vitro activity of some compounds of the disclosure on TLR7 and TLR8, were carried out using the HEK-Blue™ cells as reporter.
(§2) In Vitro Assay for Studying the Stimulation of Human TLR7 and TLR8:
HEK-Blue™ hTLR7 Cells (#hkb-htlr7) and HEK-Blue™ hTLR8 Cells (#hkb-htlr8) from InvivoGen were used according to the manufacturer's instructions. These Reporter HEK293 cells were obtained by co-transfection of the hTLR7 or TLR8 gene and an optimized Secreted Embryonic Alkaline Phosphatase (SEAP) reporter gene which is placed under the control of the IFN-β minimal promoter fused to five NF-κB and AP-1-binding sites. Stimulation with a TLR7/8 ligand activates NF-kB and AP-1 which induce the production of SEAP. The cells are seeded in 96-well plate at 3.10E4 cells/well and incubated 18 to 24 h at 37° C., 5% CO2 before adding the compounds to evaluate. […] Next, 20 μL of the supernatant is harvested and incubated with 200 μL of QUANTI-Blue™ Solution.

human TLR7 = molecular target: T2, human TLR7 (Homo sapiens, UniProt Q9NYK1); test: HEK-Blue hTLR7 reporter cell assay (SEAP, NF-kB/AP-1) for stimulation of human TLR7; type: cell-based; conditions: HEK-Blue hTLR7 cells, 24 h incubation, SEAP readout; read-out: TLR7_EC50
T2 construct: host or cells: HEK293 (HEK-Blue hTLR7)
T2 sequence (Q9NYK1 27-1049): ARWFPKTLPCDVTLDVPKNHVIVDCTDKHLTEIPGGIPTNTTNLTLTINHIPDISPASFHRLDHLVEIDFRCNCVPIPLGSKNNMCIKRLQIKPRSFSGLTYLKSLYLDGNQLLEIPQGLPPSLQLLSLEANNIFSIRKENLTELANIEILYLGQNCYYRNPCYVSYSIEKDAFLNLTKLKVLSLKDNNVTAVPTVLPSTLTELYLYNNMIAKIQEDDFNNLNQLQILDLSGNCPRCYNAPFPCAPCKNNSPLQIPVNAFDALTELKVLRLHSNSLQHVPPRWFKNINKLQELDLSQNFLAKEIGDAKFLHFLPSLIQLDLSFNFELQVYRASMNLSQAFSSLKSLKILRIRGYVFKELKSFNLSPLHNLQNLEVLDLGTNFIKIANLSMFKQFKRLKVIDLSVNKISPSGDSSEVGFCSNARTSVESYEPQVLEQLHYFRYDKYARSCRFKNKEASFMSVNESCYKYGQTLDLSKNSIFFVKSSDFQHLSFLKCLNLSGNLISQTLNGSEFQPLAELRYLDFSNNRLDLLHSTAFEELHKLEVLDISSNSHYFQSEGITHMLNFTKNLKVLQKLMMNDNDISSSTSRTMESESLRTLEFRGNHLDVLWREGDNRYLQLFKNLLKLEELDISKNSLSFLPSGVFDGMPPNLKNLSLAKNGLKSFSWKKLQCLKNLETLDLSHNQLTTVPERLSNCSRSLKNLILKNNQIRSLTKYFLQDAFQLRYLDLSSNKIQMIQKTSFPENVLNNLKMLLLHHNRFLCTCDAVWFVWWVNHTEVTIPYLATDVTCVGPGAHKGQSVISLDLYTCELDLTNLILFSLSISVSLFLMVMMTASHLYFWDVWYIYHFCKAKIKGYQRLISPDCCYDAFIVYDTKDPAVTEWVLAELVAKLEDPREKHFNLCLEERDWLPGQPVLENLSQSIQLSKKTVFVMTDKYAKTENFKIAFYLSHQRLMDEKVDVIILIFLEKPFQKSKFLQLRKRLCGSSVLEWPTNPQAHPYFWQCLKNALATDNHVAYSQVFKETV
Method: as §1
The activity described below, with respect to TLR7, TLR8, IFN-α2a, IL-6, IL29 and TNF-α, is given by the half maximal effective concentration (EC50), which corresponds to the concentration required to obtain a 50% of the activation. The lower the EC50, the less the concentration of the compound is required to produce 50% of maximum activation and the higher the potency.
as §2
HEK-Blue™ hTLR7 Cells (#hkb-htlr7) and HEK-Blue™ hTLR8 Cells (#hkb-htlr8) from InvivoGen were used according to the manufacturer's instructions. These Reporter HEK293 cells were obtained by co-transfection of the hTLR7 or TLR8 gene and an optimized Secreted Embryonic Alkaline Phosphatase (SEAP) reporter gene which is placed under the control of the IFN-β minimal promoter fused to five NF-κB and AP-1-binding sites. Stimulation with a TLR7/8 ligand activates NF-kB and AP-1 which induce the production of SEAP. The cells are seeded in 96-well plate at 3.10E4 cells/well and incubated 18 to 24 h at 37° C., 5% CO2 before adding the compounds to evaluate. The cells are subsequently incubated with 3-fold serial dilutions of each of the compounds (0.01 to 20 μM) for 24 hours at 37° C., 5% CO2. Next, 20 μL of the supernatant is harvested and incubated with 200 μL of QUANTI-Blue™ Solution.

EC50 (human TLR8)	EC50 (human TLR7)	Compound
> 20 µM	1.57 µM	CCCCc1nc2c(N)nnc(-c3ccco3)c2n1Cc1ccc(OC)cc1 [Compound 55, 2-butyl-7-(furan-2-yl)-1-(4-methoxybenzyl)-1H-imidazo[4,5-d]pyridazine-4-amine]
> 20 µM	0.231 µM	CCCCc1nc2c(N)nnc(OC3CCOC3)c2n1Cc1ccc(OC)cc1 (centres unmarked) [Compound 56, 2-butyl-1-(4-methoxybenzyl)-7-((tetrahydrofuran-3-yl)oxy)-1H-imidazo[4,5-d]pyridazin-4-amine]
> 20 µM	0.344 µM	CCCCc1nc2c(N)nnc(OC3CCOCC3)c2n1Cc1ccc(OC)cc1 [Compound 57, 2-butyl-1-(4-methoxybenzyl)-7-((tetrahydro-2H-pyran-4-yl)oxy)-1H-imidazo[4,5-d]pyridazin-4-amine]
> 20 µM	0.433 µM	CCCCc1nc2c(N)nnc(OC3CCSC3)c2n1Cc1ccc(OC)cc1 (centres unmarked) [Compound 58, 2-butyl-1-(4-methoxybenzyl)-7-((tetrahydrothiophen-3-yl)oxy)-1H-imidazo[4,5-d]pyridazin-4-amine]
> 20 µM	0.943 µM	CCCCc1nc2c(N)nnc(C3CCOC3)c2n1Cc1ccc(OC)cc1 (centres unmarked) [Compound 59, 2-butyl-1-(4-methoxybenzyl)-7-(tetrahydrofuran-3-yl)-1H-imidazo[4,5-d]pyridazin-4-amine]
> 20 µM	0.813 µM	CCCCc1nc2c(N)nnc(C=C(C)C)c2n1Cc1ccc(OC)cc1 [Compound 60, 2-butyl-1-(4-methoxybenzyl)-7-(2-methylprop-1-en-1-yl)-1H-imidazo[4,5-d]pyridazin-4-amine]
> 20 µM	1.18 µM	CCCCc1nc2c(N)nnc(CC(C)C)c2n1Cc1ccc(OC)cc1 [Compound 61, 2-butyl-7-isobutyl-1-(4-methoxybenzyl)-1H-imidazo[4,5-d]pyridazin-4-amine]
> 20 µM	0.771 µM	CCCCc1nc2c(N)nnc(-c3ccsc3)c2n1Cc1ccc(OC)cc1 [Compound 62, 2-butyl-1-(4-methoxybenzyl)-7-(thiophen-3-yl)-1H-imidazo[4,5-d]pyridazin-4-amine]
> 20 µM	1.18 µM	CCCCc1nc2c(N)nnc(-c3cccs3)c2n1Cc1ccc(OC)cc1 [Compound 63, 2-butyl-1-(4-methoxybenzyl)-7-(thiophen-2-yl)-1H-imidazo[4,5-d]pyridazin-4-amine]
> 20 µM	3.1 µM	CCCCc1nc2c(N)nnc(-c3ccc[nH]3)c2n1Cc1ccc(OC)cc1 [Compound 64, 2-butyl-1-(4-methoxybenzyl)-7-(1H-pyrrol-2-yl)-1H-imidazo[4,5-d]pyridazin-4-amine hydrochloride]
> 20 µM	2.88 µM	CCCCc1nc2c(N)nnc(C3=CCCCC3)c2n1Cc1ccc(OC)cc1 [Compound 66, 2-butyl-7-(cyclohex-1-en-1-yl)-1-(4-methoxybenzyl)-1H-imidazo[4,5-d]pyridazin-4-amine]
> 20 µM	2.06 µM	CCCCc1nc2c(N)nnc(-c3ccoc3)c2n1Cc1ccc(OC)cc1 [Compound 67, 2-butyl-7-(furan-3-yl)-1-(4-methoxybenzyl)-1H-imidazo[4,5-d]pyridazin-4-amine]
> 20 µM	4.77 µM	CCCCc1nc2c(N)nnc(OC3CCS(=O)(=O)C3)c2n1Cc1ccc(OC)cc1 (centres unmarked) [Compound 68, 3-((4-amino-2-butyl-1-(4-methoxybenzyl)-1H-imidazo[4,5-d]pyridazin-7-yl)oxy)tetrahydrothiophene 1,1-dioxide]
> 20 µM	4 µM	CCCCc1nc2c(N)nnc(-c3cccn3C)c2n1Cc1ccc(OC)cc1 [Compound 70, 2-butyl-1-(4-methoxybenzyl)-7-(1-methyl-1H-pyrrol-2-yl)-1H-imidazo[4,5-d]pyridazin-4-amine hydrochloride]
> 20 µM	3.76 µM	CCCCc1nc2c(N)nnc(Oc3ccccc3)c2n1Cc1ccc(OC)cc1 [Compound 72, 2-butyl-1-(4-methoxybenzyl)-7-phenoxy-1H-imidazo[4,5-d]pyridazin-4-amine]
> 20 µM	10.1 µM	CCCCc1nc2c(N)nnc(C3=CCOC3)c2n1Cc1ccc(OC)cc1 [Compound 73, 2-butyl-7-(2,5-dihydrofuran-3-yl)-1-(4-methoxybenzyl)-1H-imidazo[4,5-d]pyridazin-4-amine]
17.9 µM	0.586 µM	CCCCc1nc2c(N)nnc(OC(C)C)c2n1Cc1cccnc1 [Compound 74, 2-butyl-7-isopropoxy-1-(pyridin-3-ylmethyl)-1H-imidazo[4,5-d]pyridazin-4-amine]
> 20 µM	1.35 µM	CCCCc1nc2c(N)nnc(OC(C)C)c2n1Cc1ccncc1 [Compound 76, 2-butyl-7-isopropoxy-1-(pyridin-4-ylmethyl)-1H-imidazo[4,5-d]pyridazin-4-amine 2,2,2-trifluoroacetate]
> 20 µM	0.39 µM	CCCCc1nc2c(N)nnc(OC(C)C)c2n1CCCCCN [Compound 77, 1-(5-aminopentyl)-2-butyl-7-isopropoxy-1H-imidazo[4,5-d]pyridazin-4-amine]
